Test results: patent US4315003A, “Compositions containing azo compounds and use thereof for therapeutic treatment” (priority 1979, dated 1982)

Experiments:
[1] = tested on: rats; experiment: Diuretic action in rats (urinary volume during 5 hours after oral administration); type: in vivo, rat (male, Wistar strain); settings: urinary volume 5 hours, control = 100%
Experimental: A group of 5 male rats of Wistar strain having each a body weight ranging from 180 to 200 grams was used for each test compound. The rats were fasted overnight and then abstained from water two hours before the administration of the test compound. The test compound was prepared by suspending the compound in a 5% arabic gum-saline solution and administered orally to the rats in the amount of 25 ml per kg. of body weight.
The urine was collected during 5 hours after administration and its volume was measured. The diuretic actions of the test compounds were calculated as the urinary volume of the control group where no test compound was administered being as 100%.

[2] = tested on: rabbit eye mucosa; experiment: Therapeutic action on hyperemia of rabbit eye mucosa (induced by 0.03 N sodium hydroxide); type: in vivo, rabbit (male Japanese albino); parameters: key: conjunctival erythema score per Fukui and Ikemoto standards; settings: for Average Erythema Score After Treatment: 50 μl instilled, before treatment 1, solvent alone 1; for Average Erythema Score Before Treatment: baseline
Experimental: Therapeutic Action on Hyperemia of Rabbit Eye Mucosa
100 μl of 0.03 N sodium hydroxide was instillated into one eye to induce hyperemia in male Japanese albino rabbits weighting about 3 Kg. A group of 3 rabbits was used for test, which were caused an erythema score 1 on their conjunctive based on the standards of Fukui and Ikemoto (Gendai-no-Rinshao, 4, pp. 277 (1970)). The test compound was dissolved in a 10% NIKKOL HCO-60 (trademark: Nikko Chemical Co., Ltd.) and instilled to the test rabbit at a rate of 50 μl.

[3] = tested on: isolated guinea-pig atria; experiment: Cardiotropic action in isolated guinea-pig atria; parameters: species or system guinea-pig (male); settings: Cavia porcellus, 30° C.; for inhibition at 1 µg/mL / activation at 1 µg/mL: 1 μg/ml; for inhibition at 3 µg/mL / activation at 3 µg/mL: 3 μg/ml
Experimental: Cardiotropic Action in Isolated Guinea-Pig Atria
The isolated atria from male Guinea-Pigs weighing about 350 grams were hanged in an organ bath filled with a Krebs-Henselite's solution and bubbled with a mixed gas (5% CO2 and 95% O2) at 30° C. A solution of the test compound in dimethylsulfoxide was added to the bath. The contractile force and beats were then measured and calibrated into a percentage increase of the contractile force and a percentage decrease of the beats.

[4] = Acute toxicity in mice; settings: mouse, in vivo, deaths for seven days
Experimental: A group of 10 male mice of ddY strain weighing about 25 grams was administered orally or intraperitoneally with a suspension of the test compound in a 5% arabic gum solution in the amount of 10 ml per kg. of body weight. The LD50 values were calculated by means of the Wilcoxon-Litchfield method on the number of mice died for seven days after administration.

[5] = Solubility; type: physicochemical
[6] = tested on: rats; experiment: Hypertensive action in rats (blood pressure, oral, without anesthesia); type: in vivo, rat
Experimental: Hypertensive Action in Rats
A suspension of the test compound in a 5% arabic gum solution was orally to rats catheterized before more than 24 hours according to Mizokami et al. (Nihon Taishitsugaku Zasshi, 32, p.p. 59-63 (1969)).

[7] = read-out: Percentage Decrease in Beats
[8] = read-out: Percentage Increase of Contractile Force

SMILES	Average Erythema Score Before Treatment [2]	LD50 at 168 h ([4]; ip) [mg/kg]	LD50 at 168 h ([4]; po, orally) [mg/kg]	Solubility in acetone [5]	Solubility in hexane [5]	Solubility in methanol [5]	Solubility in water [5]	Diuretic Activity ([1]; 5.0 mg/kg) [%]	Diuretic Activity ([1]; 10.0 mg/kg) [%]	Diuretic Activity ([1]; 20.0 mg/kg) [%]	other results
COc1ccc(Cl)cc1N=Nc1ncc[nH]1 [Compound A, 2-[(2-methoxy-5-chlorophenyl)azo]-1H-imidazole]	1	795	1280	readily soluble	less soluble	readily soluble	less soluble				Diuretic Activity ([1]; 0.5 mg/kg): 133%; Diuretic Activity ([1]; 1.0 mg/kg): 183%; Diuretic Activity ([1]; 2.0 mg/kg): 329%; Average Erythema Score After Treatment ([2]; 0.05%): 0.33; inhibition at 1 µg/mL [3, 7]: 5.4%; activation at 1 µg/mL [3, 8]: 15.4%; Variation in Blood Pressures, Duration Period ([6]; 1 mg/kg): 55 min; Variation in Blood Pressures, Percentage Increase ([6]; 1 mg/kg): 49%
COc1ccc(F)cc1N=Nc1ncc[nH]1 [Compound B, 2-[(2-methoxy-5-fluorophenyl)azo]-1H-imidazole]	1	322	462	readily soluble	less soluble	readily soluble	less soluble				Diuretic Activity ([1]; 1.0 mg/kg): 154%; Diuretic Activity ([1]; 2.0 mg/kg): 275%; Average Erythema Score After Treatment ([2]; 0.05%): 0.33; inhibition at 1 µg/mL [3, 7]: 2.3%; activation at 1 µg/mL [3, 8]: 11.5%; Variation in Blood Pressures, Duration Period ([6]; 2 mg/kg): 65 min; Variation in Blood Pressures, Percentage Increase ([6]; 2 mg/kg): 42%
NS(=O)(=O)c1cc(C(=O)O)c(NCc2ccco2)cc1Cl [furosemide, reference compound]								113	188	292	
COc1ccc(I)cc1N=Nc1ncc[nH]1 [Compound D]	1	> 1000	> 1500	readily soluble	sparingly soluble	readily soluble	sparingly soluble	138	183		Average Erythema Score After Treatment ([2]; 0.2%): 0.5; inhibition at 3 µg/mL [3, 7]: 3.6%; activation at 3 µg/mL [3, 8]: 6.9%; Variation in Blood Pressures, Duration Period ([6]; 5 mg/kg): 50 min; Variation in Blood Pressures, Percentage Increase ([6]; 5 mg/kg): 35%
COc1ccc(Br)cc1N=Nc1ncc[nH]1 [Compound C, 2-[(2-methoxy-5-bromophenyl)azo]-1H-imidazole]	1	> 1000	> 1500	readily soluble	sparingly soluble	readily soluble	sparingly soluble	171	283		Average Erythema Score After Treatment ([2]; 0.2%): 0.33; inhibition at 3 µg/mL [3, 7]: 4.2%; activation at 3 µg/mL [3, 8]: 7.4%; Variation in Blood Pressures, Duration Period ([6]; 5 mg/kg): 70 min; Variation in Blood Pressures, Percentage Increase ([6]; 5 mg/kg): 40%
COc1ccccc1N=Nc1ncc[nH]1 [Compound E, 2-[(2-methoxyphenyl)azo]-1H-imidazole]	1	630	1010	readily soluble	sparingly soluble	readily soluble	sparingly soluble		175	206	Average Erythema Score After Treatment ([2]; 0.1%): 0.5; inhibition at 10 µg/mL ([3]; 10 μg/ml, read-out: Percentage Decrease in Beats): 2.2%; activation at 10 µg/mL ([3]; 10 μg/ml, read-out: Percentage Increase of Contractile Force): 5.7%; Variation in Blood Pressures, Duration Period ([6]; 10 mg/kg): 85 min; Variation in Blood Pressures, Percentage Increase ([6]; 10 mg/kg): 52%
Nc1nc(N)c2nc(-c3ccccc3)c(N)nc2n1 [triamterene, reference compound]									192	242	
